Results: publication PMC6225228, “Design, Synthesis and Evaluation of N-pyrazinylbenzamides as Potential Antimycobacterial Agents” (Molecules : A Journal of Synthetic Chemistry and Natural …, 2018)
Like-named read-outs stand apart in the source and are kept apart here.

Columns and labels:
[1] = test system: M. kansasii CNCTC My 235/80 (ATCC 12478); experiment: Antimycobacterial microdilution MABA, M. kansasii; format: cell-based, Mycobacterium kansasii; conditions: for MIC: Mycobacterium kansasii, ATCC12478, pH 6.6, read-out: M. kans. ATCC 12478 MIC, Middlebrook 7H9 with OADC, pH 6.6, MABA
Trichosporon asahii 1188 = experiment: Antifungal microdilution broth, TA; format: cell-based; conditions: read-out: MIC TA
Candida tropicalis 156 = experiment: Antifungal microdilution broth, CT; format: cell-based; conditions: read-out: MIC CT
[2] = test system: Staphylococcus epidermidis H 6966/08; experiment: Antibacterial microdilution broth, SE; format: cell-based; conditions: read-out: MIC SE
[3] = test system: Escherichia coli CCM 4517; experiment: Antibacterial microdilution broth, EC; format: cell-based; conditions: Escherichia coli, read-out: MIC EC
[4] = test system: Mycobacterium tuberculosis H37Rv CNCTC My 331/88 (ATCC 27294); experiment: Antimycobacterial microdilution MABA, M. tuberculosis; format: cell-based; conditions: for MIC: Mycobacterium tuberculosis, read-out: Mtb H37Rv ATCC 27294 MIC, Middlebrook 7H9 with OADC growth supplement, pH = 6.6, MABA
[5] = test system: M. avium ssp. avium CNCTC My 80/72 (ATCC 15769); experiment: Antimycobacterial microdilution MABA, M. avium; format: cell-based, Mycobacterium avium; conditions: for MIC: Mycobacterium avium, ATCC15769, pH 6.6, read-out: M. avium ATCC 15769 MIC
Candida glabrata 20/I = experiment: Antifungal microdilution broth, CG; format: cell-based; conditions: Nakaseomyces glabratus, 20/I, read-out: MIC CG
[6] = test system: Aspergillus fumigatus 231; experiment: Antifungal microdilution broth, AF; format: cell-based; conditions: read-out: MIC AF
[7] = test system: Trichophyton interdigitale 445; experiment: Antifungal microdilution broth, TI; format: cell-based; conditions: read-out: MIC TI
[8] = test system: Lichtheimia corymbifera 272; experiment: Antifungal microdilution broth, LC; format: cell-based; conditions: read-out: MIC LC
[9] = test system: Mycobacterium smegmatis CCM 4622 (ATCC 607); experiment: Antimycobacterial microdilution, M. smegmatis; format: cell-based; conditions: Mycolicibacterium smegmatis, read-out: M. smeg. ATCC 607 MIC
[10] = test system: Candida albicans ATCC 44859; experiment: Antifungal microdilution broth, CA; format: cell-based; conditions: Candida albicans, read-out: MIC CA
[11] = test system: Pseudomonas aeruginosa CCM 1961; experiment: Antibacterial microdilution broth, PA; format: cell-based; conditions: Pseudomonas aeruginosa, read-out: MIC PA
[12] = test system: Staphylococcus aureus H 5996/08 methicillin resistant; experiment: microbe, parasite or virus in culture; format: cell-based; conditions: for MIC: Staphylococcus aureus, MRSA, read-out: MIC MRSA
[13] = test system: Staphylococcus aureus CCM 4516/08; experiment: Antibacterial microdilution broth, SA; format: cell-based
Candida krusei E28 = experiment: Antifungal microdilution broth, CK; format: cell-based; conditions: Pichia kudriavzevii, read-out: MIC CK
[14] = test system: Enterococcus sp. J 14365/08; experiment: Antibacterial microdilution broth, EF; format: cell-based; conditions: Enterococcus, read-out: MIC EF
[15] = Middlebrook 7H9 with OADC, pH 6.6, MABA
[16] = Trichosporon asahii, 1188, 24 h
[17] = Trichosporon asahii, 1188, 48 h
[18] = Staphylococcus epidermidis, H6966/08, 24 h
[19] = Staphylococcus epidermidis, H6966/08, 48 h
[20] = Aspergillus fumigatus, 231, 24 h
[21] = Aspergillus fumigatus, 231, 48 h
[22] = Trichophyton interdigitale, 445, 72 h
[23] = Trichophyton interdigitale, 445, 120 h
[24] = Lichtheimia corymbifera, 272, 24 h
[25] = Lichtheimia corymbifera, 272, 48 h
[26] = Staphylococcus aureus, CCM4516, 24 h, read-out: MIC SA, 24 h
[27] = Staphylococcus aureus, CCM4516, 48 h, read-out: MIC SA, 48 h
[28] = Staphylococcus aureus, CCM4516, read-out: MIC against S. aureus, time not stated

CC(=O)Oc1cccc(C(=O)Nc2cnc(Cl)cn2)c1 [Compound 2c-Ac]
>125 µM: MIC ([2]; 24 h) | MIC ([2]; 48 h) | MIC MRSA ([12]; 24 h) | MIC MRSA ([12]; 48 h) | MIC ([13]; 24 h, read-out: MIC SA) | MIC ([13]; 48 h, read-out: MIC SA)
>100 µg/mL: M. kans. ATCC 12478 MIC [1, 15] | Mtb H37Rv ATCC 27294 MIC ([4]; Middlebrook 7H9 with OADC growth supplement, pH = 6.6, MABA) | M. avium ATCC 15769 MIC [5, 15]
250 µg/mL: MIC [9]
184.1 to 184.6 °C: melting point
> 100 µg/mL: MIC [1] | MIC [4] | MIC [5]
> 125 µM: MIC (Trichosporon asahii 1188; [16]) | MIC (Trichosporon asahii 1188; [17]) | MIC (Candida tropicalis 156; Candida tropicalis, 156, 24 h) | MIC (Candida tropicalis 156; Candida tropicalis, 156, 48 h) | MIC [2, 18] | MIC [2, 19] | MIC ([3]; CCM4517, 24 h) | MIC ([3]; CCM4517, 48 h) | MIC (Candida glabrata 20/I; 24 h) | MIC (Candida glabrata 20/I; 48 h) | MIC [6, 20] | MIC [6, 21] | MIC [7, 22] | MIC [7, 23] | MIC [8, 24] | MIC [8, 25] | MIC ([10]; ATCC44859, 24 h) | MIC ([10]; ATCC44859, 48 h) | MIC ([11]; CCM1961, 72 h) | MIC ([11]; CCM1961, 120 h) | MIC ([12]; 24 h) | MIC ([12]; 48 h) | MIC [13, 26] | MIC [13, 27] | MIC (Candida krusei E28; E28, 24 h) | MIC (Candida krusei E28; E28, 48 h) | MIC ([14]; SP.J14365/08, 24 h) | MIC ([14]; SP.J14365/08, 48 h)

COc1ccccc1C(=O)Nc1cnc(Cl)cn1 [Compound 2e]
≥ 500 µg/mL: MIC [9]
> 100 µg/mL: MIC [1] | MIC [4] | MIC [5]
141.2 to 142 °C: melting point
> 125 µM: MIC (Trichosporon asahii 1188; [16]) | MIC (Trichosporon asahii 1188; [17]) | MIC (Candida tropicalis 156; Candida tropicalis, 156, 24 h) | MIC (Candida tropicalis 156; Candida tropicalis, 156, 48 h) | MIC [2, 18] | MIC [2, 19] | MIC ([3]; CCM4517, 24 h) | MIC ([3]; CCM4517, 48 h) | MIC (Candida glabrata 20/I; 24 h) | MIC (Candida glabrata 20/I; 48 h) | MIC [6, 20] | MIC [6, 21] | MIC [7, 22] | MIC [7, 23] | MIC [8, 24] | MIC [8, 25] | MIC ([10]; ATCC44859, 24 h) | MIC ([10]; ATCC44859, 48 h) | MIC ([11]; CCM1961, 72 h) | MIC ([11]; CCM1961, 120 h) | MIC ([12]; 24 h) | MIC ([12]; 48 h) | MIC [13, 26] | MIC [13, 27] | MIC [13, 28] | MIC (Candida krusei E28; E28, 24 h) | MIC (Candida krusei E28; E28, 48 h) | MIC ([14]; SP.J14365/08, 24 h) | MIC ([14]; SP.J14365/08, 48 h)

COc1ccc(C(=O)Nc2cnc(Cl)cn2)cc1 [Compound 2g]
≥ 500 µg/mL: MIC [9]
> 125 µM: MIC (Trichosporon asahii 1188; [16]) | MIC (Trichosporon asahii 1188; [17]) | MIC (Candida tropicalis 156; Candida tropicalis, 156, 24 h) | MIC (Candida tropicalis 156; Candida tropicalis, 156, 48 h) | MIC [2, 18] | MIC [2, 19] | MIC ([3]; CCM4517, 24 h) | MIC ([3]; CCM4517, 48 h) | MIC (Candida glabrata 20/I; 24 h) | MIC (Candida glabrata 20/I; 48 h) | MIC [6, 20] | MIC [6, 21] | MIC [7, 22] | MIC [7, 23] | MIC [8, 24] | MIC [8, 25] | MIC ([10]; ATCC44859, 24 h) | MIC ([10]; ATCC44859, 48 h) | MIC ([11]; CCM1961, 72 h) | MIC ([11]; CCM1961, 120 h) | MIC ([12]; 24 h) | MIC ([12]; 48 h) | MIC [13, 26] | MIC [13, 27] | MIC [13, 28] | MIC (Candida krusei E28; E28, 24 h) | MIC (Candida krusei E28; E28, 48 h) | MIC ([14]; SP.J14365/08, 24 h) | MIC ([14]; SP.J14365/08, 48 h)
> 100 µg/mL: MIC [1] | MIC [4] | MIC [5]
177.8 to 179 °C: melting point
